Key:
[1] = test system: RS (RNA, aptamer) GGGAGACGCACCUGAAUCAACAUACGUGAACGCGACUCUAUCUCCCCAAAUUAGGCGUCAGAUAGCGGCACGGAGUUACACGAUCCGUAACUAGUCGCGUCAC; experiment: stopped-flow fluorescence, global fit; conditions: K+ 125 mM, Mg2+ 5 mM; 40 mM HEPES, pH 7.4; association rate, two-step model 5; k-1 2.9±0.7, k2 23±1 s^-1
[2] = test system: A (CFX aptamer A) (RNA, aptamer) GGGAGACGCAACAGACUAGGUUGUGACUGCUUAGGCAGUUGUGGACGGCUAAGCCCACCAGAGGUCCGUAACUAGUCGCGUCAC; experiment: fluorescence titration (ligand quenching); conditions: K+ 125 mM, Mg2+ 10 mM; 40 mM HEPES, pH 7.4, 25 °C; 50 nM CFX; Mg2+ series
[3] = test system: A (CFX aptamer A) (RNA, aptamer) GGGAGACGCAACAGACUAGGUUGUGACUGCUUAGGCAGUUGUGGACGGCUAAGCCCACCAGAGGUCCGUAACUAGUCGCGUCAC; experiment: stopped-flow fluorescence, global fit; conditions: K+ 125 mM, Mg2+ 5 mM; 40 mM HEPES, pH 7.4; association rate, reversible two-step model 4; k-1 1.6±0.2, k2 4±0.2, k-2 2.3±0.2 s^-1
[4] = test system: preRS (RNA, aptamer) GGGAGACGCAACUGAAUGAACAUAAGUGAACGCGACUCUAUCUCCCUAAACUAGGAGUCAUAUAGCGGCACGGAGUUACACGAUCCGUAACUAGUCGCGUCAC; experiment: stopped-flow fluorescence, global fit; conditions: K+ 125 mM, Mg2+ 5 mM; 40 mM HEPES, pH 7.4; association rate, two-step model 5; k-1 5.4±0.4, k2 12.1±0.7 s^-1

O=C(O)c1cn(C2CC2)c2cc(N3CCNCC3)c(F)cc2c1=O
k1 [1]: 7.62 ± 0.11 µM/s | KD [2]: ~ 13 nM | k1 [3]: 10 ± 0.2 µM/s | k1 [4]: 4.31 ± 0.06 µM/s

Reference: PMC8053125 (2021)
